Like-named read-outs stand apart in the source and are kept apart here.
What was measured:
[1] = system: mice; assay: Blocking of isolation-induced aggression in mice (antianxiety activity); format: in vivo; details: for ED50: Mus musculus, ip, intraperitoneal, 30 min before pairing, doses 10.0, 21.5, 46.4 mg/kg
Protocol: Antianxiety agents tend to block isolation-induced aggression in mice. Aggression was established in untrained mice by isolating them in individual cages for a period of four weeks. At the end of that period, the mice were paired for three minutes on three test days within one week to establish the absence or presence of aggression. During pairing, one mouse was always in the home cage, and the other was the intruder. […] On test days, each dose of test drug was administered by intraperitoneal injection to five pairs of mice; five additional pairs received only the vehicle and served as controls. Each drug was tested at three doses 10.0 mg, 21.5 mg, and 46.4 mg per kilogram of body weight. Thirty minutes after injection, the intruder was placed in the home cage of his opponent, and aggression was recorded as absent or present. When aggression was present, the intruder was removed immediately so that dominance was not established. Using the same procedure as employed in Examples 15 and 16, ED50 's were established for each compound.

[2] = system: mice; assay: Protection from reserpine-induced depression (ptosis) in mice (antidepressant activity); format: in vivo; details: for antidepressant activity (in words): under the conditions of the demonstration; for ED50: Mus musculus
Protocol: Separate groups of mice and the same origin and past history (5 mice per group) were administered 2-((2-fluorophenyl)azo)-1H-imidazole (Example 3) in an aqueous carrier. Different groups were administered the compound by intraperitoneal injection at various dosage rates. Thirty minutes after the administration of the test compound, the mice were administered reserpine at a dosage rate of 2.5 milligrams per kilogram by intraperitoneal injection. Separate groups of similar mice were similarly administered 2.5 milligrams of reserpine per kilogram 30 minutes after administration of various dosages of the known antidepressant. The mice were then observed for 45 minutes for symptoms of reserpine-induced depression.
Protection from reserpine-induced depression is indicated by the absence of the characteristic ptosis.
The results were employed to calculate the dose effective to protect 50 percent of the mice (ED50) by classical, statistical procedures.
The procedure of Example 15 was repeated using oral administration of 2-((2-fluorophenyl)azo)-1H-imidazole (Example 3) instead of intraperitoneal injection.
Using the general procedure outlined above, the ED50 's were calculated for some of the other imidazoles herein disclosed.

[3] = Acute toxicity, 50 percent lethal dose (LD50); details: mouse, in vivo
[4] = ip, intraperitoneal, 30 min before reserpine 2.5 mg/kg i.p., observed 45 min, read-out: Intraperitoneal ED50 (dose effective to protect 50 percent of the mice)
[5] = oral, before reserpine 2.5 mg/kg i.p., read-out: Oral ED50
[6] = acute, Table II, route not given, read-out: Acute Toxicity LD50

Row | Structure (SMILES) | ED50 [1] [mg/kg] | ED50 [2, 4] [mg/kg] | ED50 [2, 5] [mg/kg] | LD50 ([3]; read-out: Acute Toxicity LD50) [mg/kg] | also measured
1 | Cc1ccc(N=Nc2ncc[nH]2)c(Cl)c1 [Example 13] | 25.5 | – | – | – | antidepressant activity (in words) [2]: essentially inactive as antidepressant agents
2 | Brc1ccccc1N=Nc1ncc[nH]1 [Example 6] | 28.7 | 23 | 79 | > 562 | –
3 | Clc1ccccc1N=Nc1ncc[nH]1 [Example 1, 2-((2-chlorophenyl)azo)-1H-imidazole] | – | 20 | 23 | – | LD50 [3, 6]: > 562 mg/kg
4 | Cc1ccc(N=Nc2ncc[nH]2)cc1 [Example 12] | 28.7 | – | – | – | antidepressant activity (in words) [2]: essentially inactive as antidepressant agents
5 | N#Cc1ccccc1N=Nc1ncc[nH]1 [Example 9] | 12.6 | 20 | 19 | 147 | –
6 | Cl.Clc1ccccc1N=Nc1ncc[nH]1 [Example 2, 2-((2-chlorophenyl)azo)-1H-imidazole hydrochloride] | 13.3 | 17 | 32 | – | LD50 [3, 6]: 316 mg/kg
7 | Clc1ccc(N=Nc2ncc[nH]2)cc1 [Example 14, 2-((4-chlorophenyl)azo)-1H-imidazole] | 4.3 | – | – | – | antidepressant activity (in words) [2]: essentially inactive as antidepressant agents
8 | Ic1ccccc1N=Nc1ncc[nH]1 [Example 7] | 31.6 | – | 75 | > 562 | –
9 | Cc1ccccc1N=Nc1ncc[nH]1 [Example 5] | – | 42 | 43 | – | antianxiety activity (in words) ([1]; isolation-induced aggression in mice): very weak activity
10 | O=[N+]([O-])c1ccccc1N=Nc1ncc[nH]1 [Example 8, 2-((2-nitrophenyl)azo)-1H-imidazole] | 27.1 | – | – | – | antidepressant activity (in words) [2]: active as an antidepressant
11 | Cc1cccc(N=Nc2ncc[nH]2)c1 [Example 10, 2-((3-methylphenyl)azo)-1H-imidazole] | 5.84 | 27 | – | – | LD50 [3, 6]: 316 mg/kg
12 | Clc1cccc(N=Nc2ncc[nH]2)c1 [Example 11] | 24.5 | 24 | 32 | 178 | –
13 | c1ccc(N=Nc2ncc[nH]2)cc1 [Example 4] | 27.1 | 20 | 24 | 316 | –
14 | Fc1ccccc1N=Nc1ncc[nH]1 [Example 3, 2-((2-fluorophenyl)azo)-1H-imidazole] | 23.7 | – | – | – | ED50 ([2]; ip, read-out: Intraperitoneal ED50 (dose effective to protect 50 percent of the mice)): 11 mg/kg; ED50 ([2]; po, read-out: Oral ED50): 11 mg/kg; selectivity ratio ([3]; ip, intraperitoneal LD50 / intraperitoneal ED50 (reserpine test), read-out: therapeutic index LD50/ED50): 13.4; LD50 ([3]; ip, intraperitoneal, acute, read-out: intraperitoneal acute 50 percent lethal dose (LD50)): 147 mg/kg

— patent US4079130A, “Antidepressant phenylazoimidazoles” (The Dow Chemical Company, priority 1977, dated 1978)
